“And” between values parts separate entries of the source, which are not always exact repeats. Equal entries are not always repeated. Where two headings read alike, the source gives them in different places. Peptide text beside a SMILES is read from it.
Tests used:
[1] = Sensory test: degree of sweetness compared with sucrose (sugar) solution; conditions: for Degree of sweetness (multiplying power of sweetness): compared with a 4 to 5% sucrose solution
Description: The derivative of the invention, i.e., the compound and the form of the salt thereof of the invention was proven to have strong sweetness with a quality of sweetness that is similar to sugar, as a result of a sensory test. For example, the degree of sweetness of 2-amino-4,5-dihydroxy-4-(3-indolylmethyl)pentanoic acid (mixture of the (2S,4S) isomer and (2R,4R) isomer at a ratio of 1:1) was about 1250 times as high as that of sugar, and the degree of sweetness of (2R,4R)-2-amino-4-hydroxy-4-ethylcarbamoyl-4-(3-indolylmethyl)butyric acid was about 1600 times as high as that of sugar. […] Structure and results of the sensory test on several synthesized amino acid derivatives (represented by the following formula (1)) are presented in Table 1.

[2] = Stability (half life) in aqueous acidic solution, citrate buffer pH 3, 70° C.; type: physicochemical; conditions: citrate buffer solution of pH=3, at 70° C.
[3] = (2S,4S) isomer derived from natural plant; literature report; cited from earlier work
[4] = compared with a 5% sugar solution

SMILES	Degree of sweetness (multiplying power of sweetness) [1]	Degree of sweetness [1, 4]	Degree of sweetness ([1]; sensory test)	half-life [2]	Degree of sweetness [3]
NC(CC(O)(CO)Cc1c[nH]c2ccccc12)C(=O)O (mixture of isomers) [Compound No. 3, (2S,4S)- and (2R,4R)-2-amino-4,5-dihydroxy-4-(3-indolylmethyl)pentanoic acid mixture]	about 1250	About 1250 times	about 1250 times as high as that of sugar		
CCNC(=O)[C@@](O)(Cc1c[nH]c2ccccc12)C[C@@H](N)C(=O)O [Compound No. 8, (2R,4R)-2-amino-4-hydroxy-4-ethylcarbamoyl-4-(3-indolylmethyl)butyric acid]	about 1600	About 1600 times	about 1600 times as high as that of sugar	~97 h	
N[C@H](C[C@H](Cc1c[nH]c2ccccc12)C(=O)O)C(=O)O [Compound No. 1, (2R,4S)-2-amino-4-(3-indolyl)methyl pentandioic acid]	about 200	About 200 times			
NC(CC(O)(CO)Cc1c[nH]c2ccccc12)C(=O)O (mixture of isomers) [Compound No. 4, (2S,4R)- and (2R,4S)-2-amino-4,5-dihydroxy-4-(3-indolylmethyl)pentanoic acid mixture]	about 750	About 750 times			
CCC(O)(Cc1c[nH]c2ccccc12)CC(N)C(=O)O (stereo not drawn) [Compound No. 6, 2-amino-4-hydroxy-4-(3-indolylmethyl)hexanoic acid]	about 500	About 500 times			
CNC(=O)[C@@](O)(Cc1c[nH]c2ccccc12)C[C@@H](N)C(=O)O [Compound No. 7, (2R,4R)-2-amino-4-hydroxy-4-methylcarbamoyl-4-(3-indolylmethyl)butyric acid]	about 200	About 200 times			
COC(=O)[C@H](Cc1ccccc1)NC(=O)[C@@H](N)CC(=O)O [aspartame, reference compound] (H-Asp-Phe-OMe)				~35 h	
Cc1ccc2c(CC(O)(C[C@H](N)C(=O)O)C(=O)O)c[nH]c2c1 (stereo partly drawn) [Compound No. 2, 4-hydroxy-4-(6-methylindole-3-ylmethyl)glutamic acid]	about 650	About 650 times			
N[C@@H](C[C@@](O)(Cc1c[nH]c2ccccc12)C(=O)O)C(=O)O [monatin, (2S,4S)-2-amino-4-carboxy-4-hydroxy-5-(3-indolyl)pentanoic acid]					800 times of sucrose and 1400 times of sucrose
CC(O)(Cc1c[nH]c2ccccc12)CC(N)C(=O)O (stereo not drawn) [Compound No. 5, 2-amino-4-hydroxy-4-(3-indolylmethyl)pentanoic acid]	about 900	About 900 times			

Reference: patent US7244462B2, “Amino acid derivative and sweetening agent” (Ajinomoto Co., Inc., priority 2003, dated 2007)
